Measured values from ChEMBL document CHEMBL3822358 (J Med Chem, 2016).
Values after ≈ are worked out from the molar mass of the structure shown. Active and inactive are the calls of the source. The calls are words filed in the database; no cut-off is given here.

Tests used:
animal or person [1] = conditions: Homo sapiens, KARPAS-299, po, 312 h, read-out: TGI
Description: Antitumor activity against human KARPAS299 cells expressing NMP-ALK fusion protein xenografted in SCID/beige mouse assessed as tumor growth inhibition at 50 mg/kg, po administered once daily for 13 days relative to untreated control

[2] = Half life in CD rat at 10 mg/kg, po by LC-MS/MS analysis; format: ADME, organism-based; conditions: in vivo
[3] = Clearance in CD rat at 3 mg/kg, iv by LC-MS/MS analysis; format: ADME, organism-based; conditions: in vivo
[4] = Half life in mouse at 10 mg/kg, po by LC-MS/MS analysis; format: ADME, organism-based; conditions: in vivo
[5] = (§1) Volume of distribution at steady state in CD rat at 3 mg/kg, iv by LC-MS/MS analysis; format: ADME, organism-based; conditions: CD, in vivo, read-out: Vdss
animal or person [6] = conditions: Homo sapiens, KARPAS-299, po, 312 h, read-out: TGI; remark: listed apart in the source
Description: Antitumor activity against human KARPAS299 cells expressing NMP-ALK fusion protein xenografted in SCID/beige mouse assessed as tumor growth inhibition at 25 mg/kg, po administered once daily for 13 days relative to untreated control

cells [7] = conditions: Homo sapiens, KARPAS-299, 72 h
Description: Antiproliferative activity against human ALK-positive KARPAS299 cells assessed as reduction in cell viability measured after 72 hrs by CellTiter 96 aqueous one solution cell proliferation assay

[8] = AUC (0 to 24 hrs) in mouse at 10 mg/kg, po by LC-MS/MS analysis; format: ADME, organism-based; set-up: time < 24 hr, dose 10 mg/kg, route oral; conditions: in vivo
[9] = Oral bioavailability in CD rat at 10 mg/kg by LC-MS/MS analysis; format: ADME, organism-based; conditions: in vivo
[10] = molecular target: T1, ALK tyrosine kinase receptor (Homo sapiens, UniProt Q9UM73); assay: Inhibition of ALK phosphorylation in mouse xenografted with human KARPAS299 cells assessed as p-ALK level at 25 mg/kg, po administered as single dose measured after 16 hrs relative to 2 hrs vehicle-treated tumor; format: organism-based; set-up: scale not given: the % may be the effect or the level left; conditions: KARPAS-299
Target sequence in this assay (Q9UM73 19-1620 limits assumed): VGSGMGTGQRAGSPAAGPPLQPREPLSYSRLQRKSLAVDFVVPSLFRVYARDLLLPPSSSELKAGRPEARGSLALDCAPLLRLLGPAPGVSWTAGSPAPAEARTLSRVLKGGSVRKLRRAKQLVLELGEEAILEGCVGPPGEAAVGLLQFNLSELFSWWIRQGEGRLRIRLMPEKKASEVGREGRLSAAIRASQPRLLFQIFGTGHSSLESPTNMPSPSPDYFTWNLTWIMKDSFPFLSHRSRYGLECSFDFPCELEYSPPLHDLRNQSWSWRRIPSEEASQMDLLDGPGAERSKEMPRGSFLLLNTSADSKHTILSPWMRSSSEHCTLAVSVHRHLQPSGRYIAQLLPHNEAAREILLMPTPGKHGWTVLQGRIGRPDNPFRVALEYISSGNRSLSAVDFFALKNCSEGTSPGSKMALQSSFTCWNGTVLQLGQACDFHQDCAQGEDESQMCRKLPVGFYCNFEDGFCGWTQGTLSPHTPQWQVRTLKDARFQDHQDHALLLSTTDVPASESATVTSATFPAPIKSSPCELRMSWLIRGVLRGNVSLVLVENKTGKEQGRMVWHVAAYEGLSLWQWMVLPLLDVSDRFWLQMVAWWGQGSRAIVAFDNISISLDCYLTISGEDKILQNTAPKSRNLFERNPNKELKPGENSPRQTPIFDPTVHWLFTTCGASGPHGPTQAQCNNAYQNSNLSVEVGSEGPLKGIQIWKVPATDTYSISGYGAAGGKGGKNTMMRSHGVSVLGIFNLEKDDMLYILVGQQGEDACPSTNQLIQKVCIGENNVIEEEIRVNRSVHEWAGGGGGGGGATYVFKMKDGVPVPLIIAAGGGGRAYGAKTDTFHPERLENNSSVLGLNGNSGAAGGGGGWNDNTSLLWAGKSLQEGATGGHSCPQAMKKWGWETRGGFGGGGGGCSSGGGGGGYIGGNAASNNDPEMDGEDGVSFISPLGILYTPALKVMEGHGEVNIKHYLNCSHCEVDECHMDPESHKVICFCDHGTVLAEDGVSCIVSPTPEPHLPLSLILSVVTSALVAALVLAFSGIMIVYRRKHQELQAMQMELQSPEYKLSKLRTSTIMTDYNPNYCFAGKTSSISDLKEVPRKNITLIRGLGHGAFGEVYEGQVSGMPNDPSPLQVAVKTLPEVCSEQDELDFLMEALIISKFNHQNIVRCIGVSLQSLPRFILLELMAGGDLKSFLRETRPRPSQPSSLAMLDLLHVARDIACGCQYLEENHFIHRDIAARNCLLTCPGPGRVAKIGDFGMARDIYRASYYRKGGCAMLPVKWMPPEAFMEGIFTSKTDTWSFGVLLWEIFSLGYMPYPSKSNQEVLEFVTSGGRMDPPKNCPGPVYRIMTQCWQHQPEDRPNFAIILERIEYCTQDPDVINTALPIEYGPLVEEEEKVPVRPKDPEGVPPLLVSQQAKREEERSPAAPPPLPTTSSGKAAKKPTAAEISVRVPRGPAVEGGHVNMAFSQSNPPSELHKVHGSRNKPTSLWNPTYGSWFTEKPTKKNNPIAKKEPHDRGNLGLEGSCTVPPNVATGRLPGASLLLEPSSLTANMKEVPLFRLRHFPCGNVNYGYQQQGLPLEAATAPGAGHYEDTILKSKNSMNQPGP

cells [11] = conditions: Homo sapiens, U-937, 72 h
Description: Antiproliferative activity against human ALK-negative U937 cells assessed as reduction in cell viability measured after 72 hrs by CellTiter 96 aqueous one solution cell proliferation assay

[12] = Cmax in mouse at 10 mg/kg, po by LC-MS/MS analysis; format: ADME, organism-based; set-up: dose 10 mg/kg, route oral; conditions: in vivo
[13] = Cmax in CD rat at 10 mg/kg, po by LC-MS/MS analysis; format: ADME, organism-based; set-up: dose 10 mg/kg, route oral; conditions: in vivo
[14] = molecular target: T1, ALK tyrosine kinase receptor
Description: Inhibition of human ALK using poly[Glu:Tyr] (4:1) as substrate and [gamma-33P]ATP measured after 1 hr

[15] = (§2) Half life in CD rat at 3 mg/kg, iv by LC-MS/MS analysis; format: ADME, organism-based; conditions: CD, in vivo
Insulin receptor = Insulin receptor (Homo sapiens, UniProt P06213)
Description: Inhibition of human InsR using myelin basic protein as substrate and [gamma-33P]ATP measured after 1 hr

[16] = molecular target: Insulin-like growth factor 1 receptor (Homo sapiens, UniProt P08069)
animal or person [17] = conditions: Homo sapiens, KARPAS-299, po, 312 h, read-out: TGI; remark: listed apart in the source
Description: Antitumor activity against human KARPAS299 cells expressing NMP-ALK fusion protein xenografted in SCID/beige mouse assessed as tumor growth inhibition at 10 mg/kg, po administered once daily for 13 days relative to untreated control

[18] = molecular target: T1, ALK tyrosine kinase receptor; assay: Inhibition of ALK phosphorylation in mouse xenografted with human KARPAS299 cells assessed as p-ALK level at 25 mg/kg, po administered as single dose measured after 10 hrs relative to 2 hrs vehicle-treated tumor; format: organism-based; set-up: scale not given: the % may be the effect or the level left; conditions: KARPAS-299
Target sequence in this assay (Q9UM73 19-1620 limits assumed): as above

[19] = AUC (0 to infinity) in CD rat at 10 mg/kg, po by LC-MS/MS analysis; format: ADME, organism-based; set-up: dose 10 mg/kg, route oral, time infinity; conditions: in vivo
[20] = (§3) AUC (0 to infinity) in CD rat at 3 mg/kg, iv by LC-MS/MS analysis; format: ADME, organism-based; set-up: dose 3 mg/kg, time infinity, route intravenous; conditions: CD, in vivo
[21] = molecular target: T1, ALK tyrosine kinase receptor; assay: Inhibition of ALK phosphorylation in mouse xenografted with human KARPAS299 cells assessed as p-ALK level at 25 mg/kg, po administered as single dose measured after 24 hrs relative to 2 hrs vehicle-treated tumor; format: organism-based; set-up: scale not given: the % may be the effect or the level left; conditions: KARPAS-299
Target sequence in this assay (Q9UM73 19-1620 limits assumed): as above

[22] = Tmax in CD rat at 10 mg/kg, po by LC-MS/MS analysis; format: ADME, organism-based; conditions: in vivo
KARPAS-299 [23] = assay: Antitumor activity against human KARPAS299 cells expressing […] fusion protein xenografted in SCID/beige mouse assessed as tumor regression at 50 mg/kg, po administered once daily for 13 days; format: functional, organism-based
[24] = Aqueous solubility of the compound at physiological pH; format: physicochemical; conditions: buffer
Homo sapiens [25] = species: Homo sapiens; assay: Inhibition of human EML4/ALK I1171N mutant
KARPAS-299 [26] = assay: Antitumor activity against human KARPAS299 cells xenografted in SCID/beige mouse assessed as tumor growth inhibition administered orally once daily for 13 days relative to untreated control; format: functional, cell-based
Rattus norvegicus [27] = assay: as §1; format: ADME, organism-based; conditions: in vivo
NCI-H3122 = assay: Antitumor activity against human NCI-H3122 cells expressing EML4-ALK fusion protein xenografted in SCID/beige mouse assessed as tumor regression compound administered as once-daily oral dose for 19 days; format: functional, cell-based
[28] = molecular target: Macrophage-stimulating protein receptor (Homo sapiens) (UniProt Q04912); assay: Inhibition of human Ron using KKSRGDYMTMQIG as substrate and [gamma-33P]ATP measured up to 1 uM after 1 hr
Homo sapiens [29] = species: Homo sapiens; assay: Inhibition of human EML4/ALK F1174C/V mutant
Homo sapiens [30] = species: Homo sapiens; assay: Inhibition of human EML4/ALK […] mutant
[31] = Protein binding in rat plasma; format: ADME, cell-free; conditions: read-out: PPB (converted)
[32] = Protein binding in human plasma; format: ADME, cell-free; conditions: read-out: PPB (converted)
Rattus norvegicus [33] = assay: as §2; format: ADME, organism-based; conditions: in vivo
[34] = molecular target: Hepatocyte growth factor receptor (Homo sapiens) (UniProt P08581); assay: Inhibition of human c-Met using [KKKSPGEYVNIEFG as substrate and [gamma-33P]ATP up to 1 uM measured after 1 hr
Mus musculus [35] = assay: Toxicity in SCID/beige mouse xenografted with human NCI-H3122 cells assessed as body weight loss at 10 to 50 mg/kg, po administered once daily for 19 days relative to vehicle-treated control; format: organism-based; conditions: in vivo, 456 h
Mus musculus [36] = assay: Toxicity in SCID/beige mouse xenografted with human KARPAS299 cells expressing […] fusion protein at 50 mg/kg, po administered once daily for 13 days; format: organism-based, KARPAS-299; conditions: in vivo, 312 h
[37] = Lipophilicity, logD of the compound at pH 7; format: physicochemical; conditions: buffer
Rattus norvegicus [38] = assay: as §3; format: ADME, organism-based; set-up: dose 3 mg/kg, time infinity, route intravenous; conditions: in vivo
[39] = Protein binding in mouse plasma; format: ADME, cell-free; conditions: read-out: PPB (converted)

Sequence of Insulin-like growth factor 1 receptor (P08069 31-736 limits assumed): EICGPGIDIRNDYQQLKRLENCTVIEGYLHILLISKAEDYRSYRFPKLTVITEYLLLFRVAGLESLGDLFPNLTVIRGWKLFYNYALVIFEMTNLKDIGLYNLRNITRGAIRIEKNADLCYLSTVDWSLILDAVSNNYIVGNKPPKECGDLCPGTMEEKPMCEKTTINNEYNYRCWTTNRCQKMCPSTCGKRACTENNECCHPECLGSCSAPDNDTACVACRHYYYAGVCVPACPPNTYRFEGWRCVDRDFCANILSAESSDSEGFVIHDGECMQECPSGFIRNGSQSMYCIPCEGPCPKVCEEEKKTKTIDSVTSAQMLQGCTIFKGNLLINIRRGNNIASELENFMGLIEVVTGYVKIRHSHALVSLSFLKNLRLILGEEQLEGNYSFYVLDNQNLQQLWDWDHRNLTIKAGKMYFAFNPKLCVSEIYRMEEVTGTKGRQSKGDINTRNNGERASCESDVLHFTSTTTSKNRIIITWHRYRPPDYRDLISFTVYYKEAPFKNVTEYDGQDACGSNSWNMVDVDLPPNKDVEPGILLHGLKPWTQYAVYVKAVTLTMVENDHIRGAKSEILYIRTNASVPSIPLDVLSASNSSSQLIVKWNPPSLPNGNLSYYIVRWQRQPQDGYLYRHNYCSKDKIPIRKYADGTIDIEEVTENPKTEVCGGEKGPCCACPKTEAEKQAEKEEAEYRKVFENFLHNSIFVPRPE
Sequence of Insulin-like growth factor 1 receptor (P08069 741-1367 limits assumed): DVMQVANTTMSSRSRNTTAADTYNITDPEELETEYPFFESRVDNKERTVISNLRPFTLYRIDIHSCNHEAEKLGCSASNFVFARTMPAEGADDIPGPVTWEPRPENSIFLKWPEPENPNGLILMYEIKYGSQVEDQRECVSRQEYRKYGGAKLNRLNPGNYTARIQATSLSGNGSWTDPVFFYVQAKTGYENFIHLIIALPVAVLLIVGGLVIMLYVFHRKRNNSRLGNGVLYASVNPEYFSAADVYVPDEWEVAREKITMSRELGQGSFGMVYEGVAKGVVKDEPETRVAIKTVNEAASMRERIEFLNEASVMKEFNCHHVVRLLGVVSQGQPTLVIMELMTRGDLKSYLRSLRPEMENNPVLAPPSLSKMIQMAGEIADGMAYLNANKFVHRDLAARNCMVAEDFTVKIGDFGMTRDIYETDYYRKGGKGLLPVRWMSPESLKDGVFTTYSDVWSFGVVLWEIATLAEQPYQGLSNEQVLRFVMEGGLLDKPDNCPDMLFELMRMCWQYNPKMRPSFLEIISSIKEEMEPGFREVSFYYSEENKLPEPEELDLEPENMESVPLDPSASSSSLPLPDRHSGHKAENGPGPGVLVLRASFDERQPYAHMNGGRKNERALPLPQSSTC
Sequence of Insulin receptor (P06213 28-758 limits assumed): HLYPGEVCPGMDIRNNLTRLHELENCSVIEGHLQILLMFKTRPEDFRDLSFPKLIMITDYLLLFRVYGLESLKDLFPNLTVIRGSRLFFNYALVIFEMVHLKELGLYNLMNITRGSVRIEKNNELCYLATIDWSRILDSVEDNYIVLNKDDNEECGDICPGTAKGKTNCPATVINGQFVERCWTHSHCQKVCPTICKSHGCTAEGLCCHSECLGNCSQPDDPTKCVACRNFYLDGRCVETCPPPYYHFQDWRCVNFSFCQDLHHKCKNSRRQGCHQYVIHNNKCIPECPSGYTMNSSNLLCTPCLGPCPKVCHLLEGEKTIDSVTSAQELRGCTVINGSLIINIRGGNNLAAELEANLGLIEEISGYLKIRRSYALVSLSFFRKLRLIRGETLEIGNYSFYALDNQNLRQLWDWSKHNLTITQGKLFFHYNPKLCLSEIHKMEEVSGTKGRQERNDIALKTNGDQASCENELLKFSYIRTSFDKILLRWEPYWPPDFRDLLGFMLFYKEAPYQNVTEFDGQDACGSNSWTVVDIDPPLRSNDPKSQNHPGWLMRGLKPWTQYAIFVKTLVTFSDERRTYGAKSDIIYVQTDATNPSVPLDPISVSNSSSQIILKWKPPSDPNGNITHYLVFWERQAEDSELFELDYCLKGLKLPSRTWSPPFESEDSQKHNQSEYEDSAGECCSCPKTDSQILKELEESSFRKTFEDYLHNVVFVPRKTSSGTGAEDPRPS
Sequence of Insulin receptor (P06213 763-1382 limits assumed): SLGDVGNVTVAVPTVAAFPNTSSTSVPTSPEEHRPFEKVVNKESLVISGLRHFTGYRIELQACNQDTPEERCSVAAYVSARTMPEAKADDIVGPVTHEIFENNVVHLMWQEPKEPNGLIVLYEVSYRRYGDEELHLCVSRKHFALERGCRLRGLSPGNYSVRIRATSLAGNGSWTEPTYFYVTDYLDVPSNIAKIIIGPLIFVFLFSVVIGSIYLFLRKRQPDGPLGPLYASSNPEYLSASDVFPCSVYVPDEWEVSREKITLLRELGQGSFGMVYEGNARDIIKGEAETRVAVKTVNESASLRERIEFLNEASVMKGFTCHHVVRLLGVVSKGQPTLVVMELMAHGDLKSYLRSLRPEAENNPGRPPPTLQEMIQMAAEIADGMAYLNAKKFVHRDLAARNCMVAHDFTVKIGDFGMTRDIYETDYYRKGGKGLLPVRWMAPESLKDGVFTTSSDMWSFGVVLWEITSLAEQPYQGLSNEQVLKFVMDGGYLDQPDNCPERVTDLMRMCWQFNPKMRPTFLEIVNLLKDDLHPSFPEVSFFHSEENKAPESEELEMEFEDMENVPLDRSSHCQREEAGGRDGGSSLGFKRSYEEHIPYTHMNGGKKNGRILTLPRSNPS

Structure (SMILES)	inhibition in vivo at 50 mg/kg (animal or person [1]) [%]	half-life [2] [h]	clearance [3] [mL/min/kg]	half-life [4] [h]	Vd [5] [L/kg]	inhibition in vivo at 25 mg/kg (animal or person [6]) [%]	IC50 (cells [7]) [µM]	AUC(0-t) at 24 h [8] [ng·h/mL]	bioavailability [9] [%]	Activity [10] [%]	IC50 (cells [11]) [µM]	Cmax [12] [ng/mL]	Cmax [13] [ng/mL]	IC50 [14] [µM]	IC50 (Insulin receptor) [µM]	IC50 [16] [µM]	Activity [18] [%]	AUC(0-inf) [19] [ng·h/mL]	Activity [21] [%]	Tmax [22] [h]	also measured
COc1cc(N2CCC(N3CCCC3)CC2)ccc1Nc1ncc(Cl)c(Nc2ccccc2P(C)(C)=O)n1	26	3.7	22.7	3.1	6.61	52	0.0211	3230	19	39	1.68	411	109	0.00053	0.0853	0.0203	2	1350	51	4	half-life [15]: 4.7 h; inhibition in vivo at 10 mg/kg (animal or person [17]): 76%; AUC(0-inf) [20]: 2170 ng·h/mL
COc1cc(N2CCC(N3CCN(C)CC3)CC2)ccc1Nc1ncc(Cl)c(Nc2ccccc2P(C)(C)=O)n1 [BRIGATINIB]	-11	3.4	–	5.8	–	12	0.029	5770	52	7	3.19	448	305	–	0.196	0.0249	1	3950	39	4	Activity (KARPAS-299 [23]): Active; solubility [24]: 337 µg/mL (≈ 577 µM); inhibition (Homo sapiens [25]): Active; TGI (KARPAS-299 [26]): Dose-dependent effect; Vdss (Rattus norvegicus [27]): 7.8 L/kg; GI50 (cells [7]): 0.01 µM; Activity (NCI-H3122): Dose-dependent effect; inhibition [28]: inactive; inhibition (Homo sapiens [29]): Active; inhibition (Homo sapiens [30]): Active; fraction unbound [31]: 0.27; fraction unbound [32]: 0.34; t1/2 (Rattus norvegicus [33]): 4.8 h; inhibition [34]: inactive; Activity (Mus musculus [35]): Non-toxic; inhibition in vivo at 10 mg/kg (animal or person [17]): 50%; Activity (Mus musculus [36]): Non-toxic; logD [37]: 3.02; AUC (Rattus norvegicus [38]): 2268 ng·h/mL; fraction unbound [39]: 0.36
COc1cc(N2CCC(CN3CCC3)CC2)ccc1Nc1ncc(Cl)c(Nc2ccccc2P(C)(C)=O)n1	–	3.4	5.83	3.1	1.46	–	0.0299	6490	16	60	2.73	498	353	0.00088	0.13	0.0316	13	4570	104	6	half-life [15]: 3.6 h; AUC(0-inf) [20]: 8620 ng·h/mL
